Measurements taken from publication PMC10224356, “Trisubstituted 1,3,5-Triazines as Histamine H4 Receptor Antagonists with Promising Activity In Vivo” (Molecules, 2023).
Blank lines part the entries; values can stand above or below the molecule they belong to.

Key:
[1] = PAMPA assay (blood-brain barrier permeability); type: in vitro ADME; details: 200 µM, 5 h
Experimental: This test is a popular method for estimating the possibility of crossing BBB through passive transport. […] Caffeine was used as a standard well-permeable compound.
The Gentest^TM PAMPA Plate System, purchased from Corning (Tewksbury, MA, USA), was used for permeability evaluation. Caffeine (a reference) and the compound tested were dissolved in DMSO (10 mM stocks) and after dilution to 200 μM in PBS (pH 7.4), added to donor wells. Then, after incubation for 5 h at room temperature, concentrations of tested compounds in donor and acceptor wells were estimated by the mass spectra (LC/MS) method as described previously. The UPLC/MS Waters […] TQD system with the TQ Detector (Waters, Milford, CT, USA) was used for this detection. The assay was performed in triplicate. The permeability value (Pe) was calculated using the formula described by Chen et al..

[2] = molecular target: T1, human histamine H4 receptor (Homo sapiens, UniProt Q9H3N8); details: ref 57 (Grosicki et al.); read-out: hH4R Ki; cited from earlier work
T1 construct: made in house; host or cells: Sf9 cells (membrane preparations)

[3] = molecular target: T2, hH4R (Homo sapiens, UniProt Q9H3N8); assay: β-arrestin recruitment assay (LiveBLAzer, Tango-H4-bla U2OS cells); type: cell-based; set-up: expressed in transfected cells; host or cells: Tango-H4-bla U2OS cells
Experimental: Compounds were tested using LiveBLAzer^TM assay and Tango-H4-bla U2OS cells, allowing the estimation of the percentage of β-arrestin recruitment in response to tested treatments.
All used media and reagents except DMSO and tested compounds were purchased from ThermoFisher Scientific, Waltham, MA, USA. DMSO was from CarlRoth (Karlsruhe, Germany) and histamine was from Sigma Aldrich (Darmstadt, Germany). […] The day before the experiment cells were collected from the culture flask with trypsin and seeded in 384 well black-wall, clear-bottom plate (PerkinElmer, Waltham, MA, USA) in concentration 10,000 cells/well in FreeStyle medium. After 24 h of incubation, the cells were checked under the microscope and the dilutions of tested compounds were prepared and added to the wells. In agonist mode compounds were added to the wells and plates were placed in the incubator (HERAcell240, Heraeus, Hanau, Germany) for 16 h. In antagonist mode, first, the compounds were added to the wells, plates were incubated for 30 min, then histamine solution (corresponding to EC80—500 nM) was added and plates were put in the incubator for 16 h. After this time β-lactamase substrate mixture was prepared and added to wells (8 µL/well). Cells were incubated for 2 h at room temperature in the dark then the signal was read using an EnSpire microplate reader (PerkinElmer, Waltham, MA, USA). Drawing of dose-dependent curves and IC50 calculation for compounds were made using GraphPad Prism 6 (GraphPad Software, San Diego, CA, USA).

[4] = molecular target: T2, hH4R; assay: cAMP accumulation assay (LANCE Ultra cAMP, CHO-K1 cells stably expressing hH4R); type: cell-based; set-up: expressed in transfected cells; details: antagonist mode
[5] = molecular target: T2, hH4R; assay: as above; type: cell-based; set-up: expressed in transfected cells
Experimental: Intrinsic activity via the Gα subunit was measured using a LANCE Ultra cAMP detection kit and CHO-K1 cells stably expressing hH4R. Adenyl cyclase was stimulated by forskolin (10 µM).
Intrinsic activity in G protein-dependent pathway was measured with homogenous TR-FRET immunoassay, using LANCE Ultra cAMP kit and CHO-K1 H4R cell line or γ-irradiated recombinant CHO-K1 H4R cells (all from PerkinElmer). […] If the CHO-K1 H4R cell line was used it had been cultivated in DMEM/F12 10% FBS 400 µg/mL geneticin and passaged three times a week. […] The antagonist activity was measured in a white, opaque, 384-well microplate (PerkinElmer) with a total volume of 20 µL. […] After incubation, 5 µL of europium chelate-labelled cAMP tracer and 5 µl of ULight-labelled anti-cAMP mAb working solutions were added, mixed and incubated for 1 h. TR-FRET signal was read using a microplate reader (PerkinElmer, Waltham, MA, USA).

[6] = tested on: mice; assay: Histamine-induced pruritus; type: in vivo; details: 10 mg/kg, 60 min observation (control 62.11 ± 9.4)
Experimental: Intradermal injection of histamine induced scratching bouts in the amount of 62.11 ± 9.4. […].
(§1) The surface (around 2 cm^2) of the mice’s nape was shaved at least 2 days prior to experiments. On the day of the experiment, mice were individually placed in plastic chambers (15 × 15 × 30 cm) and after the 30 min habituation period, they were given an intradermal (i.d.) injection of histamine dihydrochloride (10 µmol/site) or chloroquine (CQ, 200 µg/site), which were dissolved in physiological saline and administrated in the constant volume of 20 μL. Immediately after the injection, scratching (series of movements considered as a single scratching bout) of the injected site by the hind paw was counted for 60 min or 30 min after histamine and CQ administration, respectively. Before pruritogens injection different groups of mice were treated i.p. with vehicle (10 mL/kg, negative control) or the dose–response of investigated compound.
(§2) Figure 9 The effect of compound 6 and reference compound pyrilamine (Pyr) on the number of scratching bouts during 60 min-long observation in histamine-induced pruritus (A) and 30 min-long observation in chloroquine-induced pruritus (B). The tested compound or vehicle (1% solution of Tween 80) was administered intraperitoneally (i.p.) 30 min before the intradermal (i.d.) injection of histamine or chloroquine. The results are presented as bar plots showing the mean ± SEM. Statistical analysis: one-way ANOVA followed by Dunnett’s post hoc test, * p < 0.05, ** p < 0.01, *** p < 0.001, n = 8–10 mice per group.

[7] = tested on: mice; assay: Chloroquine-induced pruritus; type: in vivo; details: 10 mg/kg, 30 min observation
Source text: When comparing the activity of the tested in both used models, it should be noted that the efficacy (higher maximal effect) and potency (lower doses needed to obtain the same result) of the compound were better in histamine-induced pruritus. Nevertheless, compound 6 was also active in histamine-independent itch, which contrasts with the activity of pyrilamine representing a commonly used drug in the treatment of pruritus. […] The wide spectrum of antipruritic activity of compound 6 is very promising, considering that histamine-independent itch is still a crucial clinical problem in pruritus treatment.
as §1, §2

SMILES: Cn1c(=O)c2c(ncn2C)n(C)c1=O [Caffeine]
- Mass Retention (R) [1]: 1.54%
- Pe (permeability coefficient) ± SD ([1]; PBS pH 7.4, permeable if Pe > 1.5 × 10^−6 cm/s): 9.78 ± 1.75 10^−6 cm/s
- Mass Retention (R) ([1]; listed as caffeine): 1.54%

- melting point: 149 to 153 °C
- IC50 ([3]; antagonist mode, histamine 500 nM (EC80), Tango-H4-bla U2OS cells, read-out: β-arrestin hH4R IC50 ± SEM): 41 ± 6 nM
- β-arrestin hH4R % of max. Antagonist Activity at 10 µM ([3]; at 10 µM, antagonist mode): 102%
- Kb ([3]; calculated from IC50 by Leff–Dougall variant of Cheng–Prusoff equation, read-out: pKb β-arrestin ± SEM (converted)): 6.76 nM
- cAMP hH4R % of max. Antagonist Activity at 10 µM [4]: 98%
- IC50 ([5]; antagonist mode, forskolin 10 µM, histamine 140 nM, CHO-K1 hH4R cells, read-out: cAMP hH4R IC50 ± SEM): 743 ± 30 nM
- Kb ([5]; calculated from IC50 by Leff–Dougall variant of Cheng–Prusoff equation, read-out: pKb cAMP ± SEM (converted)): 263 nM
SMILES: CN1CCN(c2nc(N)nc(CC3=CCCCC3)n2)CC1 [Compound 8, 4-(Cyclohexenylmethyl)-6-(4-methylpiperazin-1-yl)-1,3,5-triazin-2-amine]
- Ki [2]: 4.7 µM

SMILES: COc1ccc(CN(CCN(C)C)c2ccccn2)cc1 [pyrilamine, reference compound]
- Number of scratch bouts, histamine-induced pruritus [6]: 28.56 ± 3.55 scratch bouts
- Effect on scratching behaviour, chloroquine-induced pruritus [7]: did not significantly reduce scratching behaviour
